Experiment [1] deals with ptosis (eye closure) induced by reserpine. In words: prevention of ptosis (eye closure) induced by reserpine in rats. The format is in vivo, rat (male, Charles River CD strain). An excerpt: Male rats of the Charles River CD strain weighing between 140 and 180 g were randomly separated into five rats in each cage and supplied with food and water ad libitum. Eighteen hours prior to initiation of the test four of the five rats were marked with a pen such that each rat was individually identifiable; food was then withdrawn. The following morning, two hours before the test, the rats were weighed and a semi-randomised code was used to allocate treatments to rats. The test commenced by orally administering either:
The degree of ptosis was scored […] later using the following observer rating system: 0=eye fully open, 1=eye 1/4closed, 2=eye 1/2closed, 3=eye 3/4closed, 4=eye fully closed. A mean ptosis score was then calculated for all identically treated rats usually comprising a group of eight rats. […] It is widely understoodby those skilled in the art that this test is indicative of compounds having antidepressant activity in humans.

The target of the next experiment is dopamine reuptake sites (Rattus norvegicus, UniProt P23977). In words: inhibition of [3H]dopamine uptake in vitro in rat striatal synaptosomes. Format: biochemical, rat (male Charles River). The note with it: [3H]dopamine (2.5 nM) uptake, 5 minutes at 37° C.; calculated from IC50; means ± sem of three independent determinations. The protocol: Striatal tissue from the brains of male Charles River rats weighing 150-250 g was homogenised in ice-cold 0.32M sucrose (1:10 w/v) using a motor driven teflon pestle (difference in diameter between mortar and pestle 0.5 mm). Nuclei and cell debris were removed by centrifugation at 1,500 g at 4° C. for 10 minutes. The pellet (P1) was discarded and the supernatant centrifuged at 18,000 g at 4° C. for 10 minutes. The crude synaptosomal pellet (P2) was resuspended in Krebs-Henseleit buffer (equivalent to 4.2 mg wet weight of tissue/ml).
dopamine reuptake sites, sequence (P23977 whole entry): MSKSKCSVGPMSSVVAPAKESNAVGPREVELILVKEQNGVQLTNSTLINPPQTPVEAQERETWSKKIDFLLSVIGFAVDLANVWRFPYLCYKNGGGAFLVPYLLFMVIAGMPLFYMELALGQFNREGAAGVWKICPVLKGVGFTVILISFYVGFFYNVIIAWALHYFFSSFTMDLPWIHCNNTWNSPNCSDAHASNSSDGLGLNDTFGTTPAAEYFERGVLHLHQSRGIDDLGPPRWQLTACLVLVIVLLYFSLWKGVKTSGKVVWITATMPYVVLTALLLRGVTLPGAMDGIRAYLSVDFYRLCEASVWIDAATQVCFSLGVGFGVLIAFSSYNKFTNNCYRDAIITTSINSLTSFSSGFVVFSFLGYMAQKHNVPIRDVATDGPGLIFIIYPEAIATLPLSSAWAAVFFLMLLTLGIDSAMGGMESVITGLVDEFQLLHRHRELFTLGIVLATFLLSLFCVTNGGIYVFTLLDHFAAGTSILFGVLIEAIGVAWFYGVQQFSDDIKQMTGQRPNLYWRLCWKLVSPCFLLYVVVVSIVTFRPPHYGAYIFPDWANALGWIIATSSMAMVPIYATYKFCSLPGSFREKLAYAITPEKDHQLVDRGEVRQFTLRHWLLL
Crude synaptosomes were incubated in a shaking water bath at 37° C. for 15 minutes. Aliquots (150 μl; equivalent to 0.625 mg wet weight of tissue/tube) were then added to tubes containing 275 μl of Krebs-Henseleit buffer and 50 μl of Krebs-Henseleit buffer (total uptake) or 50 μl of test compound (10 concentrations ranging from 10-11-10-4M) or 50 μl of GBR 12909 (10^-5M; non-specific uptake). Uptake was initiated by the addition of 25 μl of freshly prepared [3H]dopamine(2.5 nM), followed by vortexing and was continued for 5 minutes at 37° C. in the shaking water bath.
Uptake was terminated by filtration under vacuum through Skatron 11735 filters using a Skatron cell harvester. Filters were than washed with 8 ml ice-cold saline. The scored filter paper discs were punched into vials, scintillation fluid added and radioactivity determinedby liquid scintillation counting.
The percentage inhibition of specific uptake of the tritiated ligand was calculated for each concentration of test compound. Inhibition curves were then produced. The concentration of compounds which gave 50% inhibition of specific uptake (IC50) was obtained from the curve. The inhibition constant (Ki) was then calculated using the formula [formula] in which [L] is the concentration of tritiated ligand used and Km is the affinity of the uptake site for the ligand. The Ki values for compounds for formula I and III are given in Table 1 as the means ± sem of three independent determinations.

The mark [2] stands for this setting: Rattus norvegicus, po, 3 h, dose causing 50% prevention of reserpine-induced ptosis, test compound oral, reserpine 0.75 mg/kg intravenous, scored three hours later, read-out: ED50.

The structures appear in SMILES notation. Structures can show the parent of a compound that is named as a salt. Where two headings read alike, the source gives them in different places.

What is called ED50 is the dose that gives a 50% effect, or the effect in half of the subjects. As to `CN(C)CCSCC(=O)C1(c2ccc(Cl)c(Cl)c2)CCC1.Cl` [Example 1, 1-[1-(3,4-dichlorophenyl)cyclobutyl]-2-[2-(dimethyl-amino)ethylthio]ethanone hydrochloride], the ED50 in experiment [1] (setting [2]) is 8.5 mg/kg. Still for that read-out and setting: the same measure for `CN(C)CCCSCC(=O)C1(c2cccc(Cl)c2)CCC1.Cl` [Example 12, 1-[1-(3-chlorophenyl)cyclobutyl]-2-[3-(dimethylamino)propylthio]ethanone hydrochloride]: 23.4 mg/kg; for `CN(C)CCCSCC(O)C1(c2ccc(Cl)c(Cl)c2)CCC1.O=C(O)CC(O)(CC(=O)O)C(=O)O` (single isomer, unassigned; (-)) [Example 16, (-)-1-[1-(3,4-dichlorophenyl)cyclobutyl]-2-[3-(dimethylamino)propylthio]ethanol citrate]: 2.2 mg/kg. Turning to `CN(C)CC[S+]([O-])CC(=O)C1(c2ccc(Cl)c(Cl)c2)CCC1.Cl` (stereo not drawn) [Example 2, 1-[1-(3,4-dichlorophenyl)cyclobutyl]-2-[2-(dimethylamino)ethylsulphinyl]ethanone hydrochloride], the ED50 in experiment [1] (setting [2]) turned out to be 7.7 mg/kg. In the case of `CN(C)CCCSCC(O)C1(c2ccc(Cl)c(Cl)c2)CCC1.O=C(O)CC(O)(CC(=O)O)C(=O)O` (single isomer, unassigned; (+)) [Example 17, (+)-1-[1-(3,4-dichlorophenyl)cyclobutyl]-2-[3-(dimethylamino)-propylthio]ethanol citrate], in experiment [1] (dose causing 50% prevention of reserpine-induced ptosis, test compound oral, reserpine 0.75 mg/kg intravenous, scored three hours later, citrate), the 50% effective dose (ED50) was 2.5 mg/kg. The term Ki denotes the dissociation constant of the complex between target and ligand, obtained from inhibition or displacement. As for `CC(CSCC(O)C1(c2ccc(Cl)c(Cl)c2)CCC1)CN(C)C` (stereo not drawn) [Example 19, 1-[1-(3,4-dichlorophenyl)cyclobutyl]-2-[3-(dimethylamino)-2-methylpropylthio]ethanol], the ED50 in experiment [1] (setting [2]) came to 6.9 mg/kg. Besides, at dopamine reuptake sites, the Ki is 6.9 ± 0.6 nM. As for `CN(C)CCCSCC(=O)C1(c2ccc(Cl)c(Cl)c2)CCCC1.Cl` [Example 20, 1-[1-(3,4-dichlorophenyl)cyclopentyl]-2-[3-(dimethylamino)propylthio]ethanone hydrochloride], in experiment [1] (setting [2]), the ED50 amounted to 3.7 mg/kg. Moreover, the Ki at dopamine reuptake sites was 4.4 ± 0.2 nM.

`CN(C)CCCSCC(=O)C1(c2ccc(Cl)c(Cl)c2)CCC1.O=C(O)CC(O)(CC(=O)O)C(=O)O` [Example 18, 1-[1-(3,4-dichlorophenyl)cyclobutyl]-2-[3-(dimethylamino)propylthio]ethanone citrate]: the 50% effect level in experiment [1] (Rattus norvegicus, po, 3 h) (ED50) was put at a dose of 4.9 mg/kg. Also, at dopamine reuptake sites, the Ki was 4.2 ± 0.4 nM. In the case of `CN(C)CCSCC(O)C1(c2ccc(Cl)c(Cl)c2)CCC1.Cl` (stereo not drawn) [Example 6, 1-[1-(3,4-dichlorophenyl)cyclobutyl]-2-[2-(dimethyl-amino)ethylthio]ethanol hydrochloride], the ED50 in experiment [1] (setting [2]) was 5.7 mg/kg. Regarding `CN(C)CCCSCC(O)C1(c2ccc(Cl)c(Cl)c2)CCC1` (stereo not drawn) [Example 9, 1-[1-(3,4-dichlorophenyl)cyclobutyl]-2-[3-(dimethylamino)propyl-thio]ethanol], in experiment [1] (setting [2]), the ED50 turned out to be 4.8 mg/kg. For the same compound, the Ki at dopamine reuptake sites is 7.3 ± 1.6 nM.

As to `CN(C)CCS(=O)(=O)CC(=O)C1(c2ccc(Cl)c(Cl)c2)CCC1.Cl` [Example 3, 1-[1-(3,4-dichlorophenyl)cyclobutyl]-2-[2-(dimethylamino)ethylsulphonyl]ethanone hydrochloride], the 50% effective dose (ED50) in experiment [1] (setting [2]) is 5.9 mg/kg. Regarding `CC(CSCC(=O)C1(c2ccc(Cl)c(Cl)c2)CCC1)CN(C)C` (stereo not drawn) [Example 10, 1-[1-(3,4-dichlorophenyl)cyclobutyl]-2-[3-(dimethylamino)-2-methylpropylthio]ethanone], in experiment [1] (setting [2]), the ED50 stood at 8.7 mg/kg. On dopamine reuptake sites, the Ki was 7.2 ± 1 nM.

Turning to `CN(CCSCC(=O)C1(c2ccc(Cl)c(Cl)c2)CCC1)Cc1ccccc1.Cl` [Example 5, 2-[2-(N-benzyl-N-methylamino)ethylthio]-1-[1-(3,4-dichlorophenyl)cyclobutyl]ethanone hydrochloride], in experiment [1] (setting [2]), the ED50 came out at 16.4 mg/kg. As to `CCN(CC)CCSCC(=O)C1(c2ccc(Cl)c(Cl)c2)CCC1` [Example 4, 1-[1-(3,4-dichlorophenyl)cyclobutyl]-2-[2-(diethylamino)ethylthio]ethanonehydrochloride], the ED50 in experiment [1] (setting [2]) worked out at 9.7 mg/kg. `CCCN(CCC)CCCSCC(=O)C1(c2ccc(Cl)c(Cl)c2)CCC1` [Example 14, 1-[1-(3,4-dichlorophenyl)cyclobutyl]-2-[3-(dipropylamino)propylthio]ethanone]: the ED50 in experiment [1] (setting [2]) came out at 7.3 mg/kg. Also, on dopamine reuptake sites, the inhibition constant Ki was 13.4 ± 2.1 nM. The matching figures for `CN(C)CCCCSCC(=O)C1(c2ccc(Cl)c(Cl)c2)CCC1.Cl` [Example 13, 1-[1-(3,4-dichlorophenyl)cyclobutyl]-2-[4-(dimethylamino)-butylthio]ethanone hydrochloride]: 5.9 mg/kg and 6.5 ± 1 nM.

Regarding `CN(C)CCCS(=O)(=O)CC(=O)C1(c2ccc(Cl)c(Cl)c2)CCC1.Cl` [Example 8, 1-[1-(3,4-dichlorophenyl)cyclobutyl]-2-[3-(dimethylamino)propylsulphonyl]ethanone hydrochloride], in experiment [1] (setting [2]), the ED50 turned out to be 3.4 mg/kg. For the same compound, the Ki on dopamine reuptake sites was 13.4 ± 0.1 nM. As to `CN(C)CCSCC(=O)C1(c2ccc3ccccc3c2)CCC1.Cl` [Example 11, 2-[2-(dimethylamino)ethylthio]-1-[1-(2-naphthyl)cyclobutyl]ethanone hydrochloride], the ED50 in experiment [1] (setting [2]) was determined as 24.1 mg/kg. For the compound `CN(C)CCCSCC(=O)C1(c2ccc(Cl)c(Cl)c2)CCC1.Cl` [Example 7, 1-[1-(3,4-dichlorophenyl)-cyclobutyl]-2-[3-(dimethylamino)propylthio]ethanone hydrochloride], the ED50 in experiment [1] (setting [2]) worked out at 4.2 mg/kg. For the same compound, at dopamine reuptake sites, the inhibition constant (Ki) is 5 ± 0.5 nM.

Take `CN(C)CCCSCC(=O)C1(c2ccc(Cl)c(Cl)c2)CCC1.O=C(O)/C=C/C(=O)O` [Example 15, 1-[1-(3,4-dichloro-phenyl)cyclobutyl]-2-[3-(dimethylamino)propylthio]ethanone fumarate]: the ED50 in experiment [1] (setting [2]) turned out to be 4 mg/kg. Moreover, the Ki on dopamine reuptake sites is 3.7 ± 0.4 nM.

(Values after US5652271A, “Therapeutic agents” (Knoll Aktiengesellschaft, priority 1993, dated 1997).)
